Assay results published in ChEMBL document CHEMBL1811903, “Protective role of 14-deoxy-11,12-didehydroandrographolide, a noncytotoxic analogue of andrographolide, in allergic airway inflammation” (J Nat Prod, 2011).
Activity calls are given as the source filed them. The calls are words filed in the database; no cut-off is given here.

How the values were obtained:
[1] = molecular target: Transcription factor p65 (Homo sapiens) (UniProt Q04206); assay: Inhibition of NF-kappaB p65 subunit in TNFalpha-stimulated human A549 cells assessed as reduction in DNA binding activity at 30 uM after 24 hrs by ELISA; assay type: cell-based
Mus musculus [2] = assay: Antiinflammatory activity in ovalbumin-sensitized BALB/c mouse asthma model lung assessed as suppression in Muc5ac mRNA level at 1 mg/kg, ip administered 2 hrs before and 10 hrs after ovalbumin challenge measured after 24 hrs by RT-PCR analysis; assay type: functional, organism-based; design: dose 1 mg/kg
Mus musculus [3] = assay: Toxicity in BALB/c mouse assessed as reduction in hemoglobin concentration at 1 mg/kg, ip; assay type: organism-based; design: dose 1 mg/kg, route intraperitoneal; conditions: in vivo
Mus musculus [4] = assay: Antiinflammatory activity in ovalbumin-sensitized BALB/c mouse asthma model assessed as reduction in mucus production in lung at 1 mg/kg, ip administered 2 hrs before and 10 hrs after ovalbumin challenge measured after 24 hrs using PAS staining by histologic analysis; assay type: functional, organism-based; design: dose 1 mg/kg
[5] = molecular target: Transcription factor p65 (Homo sapiens) (UniProt Q04206); assay: Inhibition of NF-kappaB p65 subunit translocation in TNFalpha-stimulated human A549 cells assessed as reduction in p65 level in nuclear extract at 30 uM after 24 hrs by immunoblotting; assay type: cell-based
Mus musculus [6] = assay: Antiinflammatory activity in ovalbumin-sensitized BALB/c mouse asthma model lung assessed as suppression in IL-17 mRNA level at 1 mg/kg, ip administered 2 hrs before and 10 hrs after ovalbumin challenge measured after 24 hrs by RT-PCR analysis; assay type: functional, organism-based; design: dose 1 mg/kg
A549 = assay: Cytotoxicity against human A549 cells assessed as reduction in cell viability at 3 to 120 uM after 24 to 48 hrs by MTS assay; assay type: cell-based; conditions: a549, 120 µM
Mus musculus [7] = assay: Antiinflammatory activity in ovalbumin-sensitized BALB/c mouse asthma model assessed as reduction in methacholine-induced maximum total lung resistance at 1 mg/kg, ip administered 2 hrs before and 10 hrs after ovalbumin challenge; assay type: functional, organism-based; design: dose 1 mg/kg
Mus musculus [8] = assay: Antiinflammatory activity in ovalbumin-sensitized BALB/c mouse asthma model lung assessed as suppression in COX-2 mRNA level at 1 mg/kg, ip administered 2 hrs before and 10 hrs after ovalbumin challenge measured after 24 hrs by RT-PCR analysis; assay type: functional, organism-based; design: dose 1 mg/kg
Mus musculus [9] = assay: Antiinflammatory activity in ovalbumin-sensitized BALB/c mouse asthma model assessed as reduction in IgG1 level in serum at 0.1 to 1 mg/kg, ip administered 2 hrs before and 10 hrs after ovalbumin challenge measured after 24 hrs by ELISA; assay type: functional, organism-based
Mus musculus [10] = assay: Antiinflammatory activity in ovalbumin-sensitized BALB/c mouse asthma model lung assessed as suppression in Ym-2 mRNA level at 1 mg/kg, ip administered 2 hrs before and 10 hrs after ovalbumin challenge measured after 24 hrs by RT-PCR analysis; assay type: functional, organism-based; design: dose 1 mg/kg
Mus musculus [11] = assay: Antiinflammatory activity in ovalbumin-sensitized BALB/c mouse asthma model lung assessed as suppression in IL-33 mRNA level at 1 mg/kg, ip administered 2 hrs before and 10 hrs after ovalbumin challenge measured after 24 hrs by RT-PCR analysis; assay type: functional, organism-based; design: dose 1 mg/kg
Mus musculus [12] = assay: Toxicity in BALB/c mouse assessed as reduction in white blood cell count at 1 mg/kg, ip; assay type: organism-based; design: dose 1 mg/kg, route intraperitoneal; conditions: in vivo
Mus musculus [13] = assay: Antiinflammatory activity in ovalbumin-sensitized BALB/c mouse asthma model assessed as reduction in goblet cell hyperplasia at 1 mg/kg, ip administered 2 hrs before and 10 hrs after ovalbumin challenge measured after 24 hrs using hematoxylin and eosin staining by histologic analysis; assay type: functional, organism-based; design: dose 1 mg/kg
Mus musculus [14] = assay: Antiinflammatory activity in ovalbumin-sensitized ip dosed BALB/c mouse asthma model assessed as reduction in IL-13 level in bronchoalveolar lavage fluid administered 2 hrs before and 10 hrs after ovalbumin challenge measured after 24 hrs by ELISA; assay type: functional, organism-based; conditions: Lung
Mus musculus [15] = assay: Antiinflammatory activity in ovalbumin-sensitized BALB/c mouse asthma model lung assessed as Inhibition of NF-kappaB p65 subunit nuclear translocation at 1 mg/kg, ip administered 2 hrs before and 10 hrs after ovalbumin challenge measured after 24 hrs by immunoblotting; assay type: functional, organism-based; design: dose 1 mg/kg
Mus musculus [16] = assay: Antiinflammatory activity in ovalbumin-sensitized BALB/c mouse asthma model lung assessed as suppression in VCAM-1 mRNA level at 1 mg/kg, ip administered 2 hrs before and 10 hrs after ovalbumin challenge measured after 24 hrs by RT-PCR analysis; assay type: functional, organism-based; design: dose 1 mg/kg
Mus musculus [17] = assay: Antiinflammatory activity in BALB/c mouse asthma model assessed as reduction in ovalbumin-induced lymphocyte counts in bronchoalveolar lavage fluid at 1 mg/kg, ip administered 2 hrs before and 10 hrs after ovalbumin challenge measured after 24 hrs by cell counting; assay type: functional, organism-based; design: dose 1 mg/kg; conditions: Lung
Mus musculus [18] = assay: Antiinflammatory activity in ovalbumin-sensitized BALB/c mouse asthma model assessed as reduction in total IgE level in serum at 0.1 to 1 mg/kg, ip administered 2 hrs before and 10 hrs after ovalbumin challenge measured after 24 hrs by ELISA; assay type: functional, organism-based
Mus musculus [19] = assay: Antiinflammatory activity in ip dosed BALB/c mouse asthma model assessed as reduction in ovalbumin-induced eosinophil counts in bronchoalveolar lavage fluid administered 2 hrs before and 10 hrs after ovalbumin challenge measured after 24 hrs by cell counting; assay type: functional, organism-based; conditions: Lung
Mus musculus [20] = assay: Antiinflammatory activity in ovalbumin-sensitized BALB/c mouse asthma model assessed as reduction in IgG2a level in serum at 0.1 to 1 mg/kg, ip administered 2 hrs before and 10 hrs after ovalbumin challenge measured after 24 hrs by ELISA; assay type: functional, organism-based
Mus musculus [21] = assay: Antiinflammatory activity in ip dosed BALB/c mouse asthma model assessed as reduction in ovalbumin-induced total cell counts in bronchoalveolar lavage fluid administered 2 hrs before and 10 hrs after ovalbumin challenge measured after 24 hrs by cell counting; assay type: functional, organism-based; conditions: Lung
Mus musculus [22] = assay: Inhibition of ovalbumin-induced mast cell degranulation in BALB/c mouse asthma model at 1 mg/kg, ip administered 2 hrs before and 10 hrs after ovalbumin challenge measured after 24 hrs using toluidine blue staining by cell counting; assay type: functional, organism-based; design: dose 1 mg/kg
RBL-2H3 [23] = assay: Cytotoxicity against rat RBL2H3 cells assessed as reduction in cell viability at 3 to 120 uM after 24 to 48 hrs by MTS assay; assay type: cell-based; conditions: rbl-2h3, 120 µM
Mus musculus [24] = assay: Antiinflammatory activity in ovalbumin-sensitized BALB/c mouse asthma model lung assessed as suppression in Ym-1 mRNA level at 1 mg/kg, ip administered 2 hrs before and 10 hrs after ovalbumin challenge measured after 24 hrs by RT-PCR analysis; assay type: functional, organism-based; design: dose 1 mg/kg
Mus musculus [25] = assay: Antiinflammatory activity in ovalbumin-sensitized BALB/c mouse asthma model lung assessed as suppression in MCP-1 mRNA level at 1 mg/kg, ip administered 2 hrs before and 10 hrs after ovalbumin challenge measured after 24 hrs by RT-PCR analysis; assay type: functional, organism-based; design: dose 1 mg/kg
Mus musculus [26] = assay: Antiinflammatory activity in ovalbumin-sensitized ip dosed BALB/c mouse asthma model assessed as reduction in eotaxin level in bronchoalveolar lavage fluid administered 2 hrs before and 10 hrs after ovalbumin challenge measured after 24 hrs by ELISA; assay type: functional, organism-based; conditions: Lung
Mus musculus [27] = assay: Antiinflammatory activity in ovalbumin-sensitized BALB/c mouse asthma model lung assessed as suppression in […] mRNA level at 1 mg/kg, ip administered 2 hrs before and 10 hrs after ovalbumin challenge measured after 24 hrs by RT-PCR analysis; assay type: functional, organism-based; design: dose 1 mg/kg
Mus musculus [28] = assay: Antiinflammatory activity in ovalbumin-sensitized BALB/c mouse asthma model assessed as reduction in IgE level in serum at 0.1 to 1 mg/kg, ip administered 2 hrs before and 10 hrs after ovalbumin challenge measured after 24 hrs by ELISA; assay type: functional, organism-based
RBL-2H3 [29] = assay: Inhibition of IgE-mediated rat RBL2H3 cell degranulation assessed as inhibition of beta-hexosaminidase release; assay type: functional, cell-based
Mus musculus [30] = assay: Antiinflammatory activity in BALB/c mouse asthma model assessed as reduction in ovalbumin-induced macrophage counts in bronchoalveolar lavage fluid at 1 mg/kg, ip administered 2 hrs before and 10 hrs after ovalbumin challenge measured after 24 hrs by cell counting; assay type: functional, organism-based; design: dose 1 mg/kg; conditions: Lung
Mus musculus [31] = assay: Antiinflammatory activity in ovalbumin-sensitized BALB/c mouse asthma model lung assessed as suppression in E-selectin mRNA level at 1 mg/kg, ip administered 2 hrs before and 10 hrs after ovalbumin challenge measured after 24 hrs by RT-PCR analysis; assay type: functional, organism-based; design: dose 1 mg/kg
[32] = Cytotoxicity against human BEAS2B cells assessed as reduction in cell viability at 3 to 120 uM after 24 to 48 hrs by MTS assay; assay type: cell-based; conditions: beas-2b
Mus musculus [33] = assay: Antiinflammatory activity in ovalbumin-sensitized ip dosed BALB/c mouse asthma model assessed as reduction in IL-5 level in bronchoalveolar lavage fluid administered 2 hrs before and 10 hrs after ovalbumin challenge measured after 24 hrs by ELISA; assay type: functional, organism-based; conditions: Lung
Mus musculus [34] = assay: Toxicity in BALB/c mouse assessed as reduction in hematocrit at 1 mg/kg, ip; assay type: organism-based; design: dose 1 mg/kg, route intraperitoneal; conditions: in vivo
Mus musculus [35] = assay: Toxicity in BALB/c mouse assessed as reduction in red blood cell count at 1 mg/kg, ip; assay type: organism-based; design: dose 1 mg/kg, route intraperitoneal; conditions: in vivo
Mus musculus [36] = assay: Antiinflammatory activity in ovalbumin-sensitized ip dosed BALB/c mouse asthma model assessed as reduction in IL-4 level in bronchoalveolar lavage fluid administered 2 hrs before and 10 hrs after ovalbumin challenge measured after 24 hrs by ELISA; assay type: functional, organism-based; conditions: Lung
Mus musculus [37] = assay: Antiinflammatory activity in ovalbumin-sensitized BALB/c mouse asthma model lung assessed as suppression in AMCase mRNA level at 1 mg/kg, ip administered 2 hrs before and 10 hrs after ovalbumin challenge measured after 24 hrs by RT-PCR analysis; assay type: functional, organism-based; design: dose 1 mg/kg
Mus musculus [38] = assay: Antiinflammatory activity in ovalbumin-sensitized BALB/c mouse asthma model assessed as reduction in methacholine-induced distensibility of the lung at 1 mg/kg, ip administered 2 hrs before and 10 hrs after ovalbumin challenge; assay type: functional, organism-based; design: dose 1 mg/kg
Mus musculus [39] = assay: Antiinflammatory activity in ovalbumin-sensitized BALB/c mouse asthma model lung assessed as reduction in NF-kappaB DNA binding activity at 1 mg/kg, ip administered 2 hrs before and 10 hrs after ovalbumin challenge measured after 24 hrs by immunoblotting; assay type: functional, organism-based; design: dose 1 mg/kg

Sequence of Transcription factor p65 (Homo sapiens) (Q04206 whole entry): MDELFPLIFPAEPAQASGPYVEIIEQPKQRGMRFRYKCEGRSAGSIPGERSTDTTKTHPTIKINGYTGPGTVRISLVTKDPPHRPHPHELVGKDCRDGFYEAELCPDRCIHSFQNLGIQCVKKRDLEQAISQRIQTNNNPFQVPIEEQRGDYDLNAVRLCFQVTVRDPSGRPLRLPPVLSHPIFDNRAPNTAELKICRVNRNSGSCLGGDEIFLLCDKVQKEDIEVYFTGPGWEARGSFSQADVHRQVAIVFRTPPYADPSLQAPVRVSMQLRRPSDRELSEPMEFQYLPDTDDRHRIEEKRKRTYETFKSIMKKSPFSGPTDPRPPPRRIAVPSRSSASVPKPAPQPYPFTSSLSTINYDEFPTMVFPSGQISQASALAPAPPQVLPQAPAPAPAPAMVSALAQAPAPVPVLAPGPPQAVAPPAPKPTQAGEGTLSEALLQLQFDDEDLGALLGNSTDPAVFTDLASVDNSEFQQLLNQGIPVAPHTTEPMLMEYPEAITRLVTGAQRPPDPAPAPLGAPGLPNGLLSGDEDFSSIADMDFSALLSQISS

SMILES: C=C1CC[C@@H]2[C@](C)(CO)[C@H](O)CC[C@@]2(C)[C@@H]1/C=C/C1=CCOC1=O
- inhibition [1]: Active
- Activity (Mus musculus [2]): Active
- Activity (Mus musculus [3]): Non-toxic
- Activity (Mus musculus [4]): Active
- inhibition [5]: Active
- Activity (Mus musculus [6]): Active
- Activity (A549): Non-toxic
- Activity (Mus musculus [7]): Active
- Activity (Mus musculus [8]): Active
- Activity (Mus musculus [9]): Active
- Activity (Mus musculus [10]): Active
- Activity (Mus musculus [11]): Active
- Activity (Mus musculus [12]): Non-toxic
- Activity (Mus musculus [13]): Active
- Activity (Mus musculus [14]): Dose-dependent effect
- inhibition (Mus musculus [15]): Active
- Activity (Mus musculus [16]): Active
- Activity (Mus musculus [17]): Active
- Activity (Mus musculus [18]): Active
- Activity (Mus musculus [19]): Dose-dependent effect
- Activity (Mus musculus [20]): inactive
- Activity (Mus musculus [21]): Dose-dependent effect
- inhibition (Mus musculus [22]): inactive
- Activity (RBL-2H3 [23]): Non-toxic
- Activity (Mus musculus [24]): Active
- Activity (Mus musculus [25]): Active
- Activity (Mus musculus [26]): Dose-dependent effect
- Activity (Mus musculus [27]): Active
- Activity (Mus musculus [28]): Active
- inhibition (RBL-2H3 [29]): inactive
- Activity (Mus musculus [30]): Active
- Activity (Mus musculus [31]): Active
- Activity [32]: Non-toxic
- Activity (Mus musculus [33]): Dose-dependent effect
- Activity (Mus musculus [34]): Non-toxic
- Activity (Mus musculus [35]): Non-toxic
- Activity (Mus musculus [36]): Dose-dependent effect
- Activity (Mus musculus [37]): Active
- Activity (Mus musculus [38]): Active
- Activity (Mus musculus [39]): Active
